Patent US20180185431A1, “HOVENIAE SEMEN CUM FRUCTRUS EXTRACT COMPOSITIONS AND METHOD OF USE” (ARIBIO Co., Ltd., priority 2016, published 2018)

Experiments:
HepG2 cells = experiment: MTT assay, tBHP-induced cytotoxicity (cytoprotection); assay type: cell-based, human; conditions: SFN 30 M pretreatment, 150 M tBHP
[1] = test system: ARE (Nrf2), pGL4.37 transfected HepG2 cells; experiment: ARE-driven luciferase reporter gene assay (Nrf2 transactivation); assay type: cell-based, human; conditions: SFN 30 M
Method: To examine the possibility that ARE activation by Nrf2 is associated with HSCF extracts-mediated cytoprotection, pGL4.37 tranfected HepG2 cells (5×10^5 cells/well) were plated in 12-well overnight, serum starved for 12 hrs, and then subsequently exposed to 30-1000 μg/ml HSCF extracts for 18 hrs. ARE-driven luciferase activity was measured in the cell treated with HSCF extracts. […] The relative ARE-luciferase activities were 1.39±0.88, 1.62±1.08, 1.91±1.22, and 3.25±0.88 in […] HSCF extracts treated cells, respectively (FIG. 3).
ARE-driven reporter gene construct, pGL4.37 [luc2P/ARE/Hygro] was obtained from promega (Madison, Wis., USA). HepG2 cells were stably transfected with pGL4.37 plasmid using Fugene HD (Promega, Madison, Wis., USA) according to manufacturer's instruction and 80 µg/mL hygromycin was added to select the resistant colonies. The resistant colonies were pooled and used for reporter gene analysis. […] Luciferase activities in cell lysates were measured by adding luciferase assay reagent (Promega, Madison, Wis., USA) using […] automatic multimode reader (Model Infinite 200 PRO; Tecan, Männedorf, Switzerland). The relative luciferase activity was calculated as the relative change to protein content determined by bicinchoninic acid (BCA) method.

Structure (SMILES): C[S+]([O-])CCCCN=C=S (centres unmarked) [SFN, Sulforaphane]
- protection from tBHP-mediated cell death (HepG2 cells): significantly protected from tBHP-mediated cell death
- ARE-driven luciferase activity [1]: significantly increased luciferase activity
